Numbers after ± are expanded uncertainties.
Conditions: Liquid; for mass density / viscosity: 298.15 K; for mass density: 101.33 kPa; for vapor or sublimation pressure: Twin ebulliometer

COC(=O)OC [dimethyl carbonate]
mass density: 1063.4 ± 0.1 kg/m3
viscosity: 0.578 ± 0.016 mPa·s
vapor or sublimation pressure (310 K): 12.17 ± 0.17 kPa
vapor or sublimation pressure (313.86 K): 14.7 ± 0.21 kPa
vapor or sublimation pressure (317.71 K): 17.65 ± 0.25 kPa
vapor or sublimation pressure (321.57 K): 21.05 ± 0.3 kPa
vapor or sublimation pressure (325.43 K): 24.96 ± 0.35 kPa
vapor or sublimation pressure (329.29 K): 29.43 ± 0.41 kPa
vapor or sublimation pressure (333.14 K): 34.51 ± 0.48 kPa
vapor or sublimation pressure (337 K): 40.26 ± 0.56 kPa
vapor or sublimation pressure (340.86 K): 46.73 ± 0.66 kPa
vapor or sublimation pressure (344.71 K): 53.99 ± 0.76 kPa
vapor or sublimation pressure (348.57 K): 62.11 ± 0.87 kPa
vapor or sublimation pressure (352.43 K): 71.13 ± 1 kPa
vapor or sublimation pressure (356.29 K): 81.14 ± 1.1 kPa
vapor or sublimation pressure (360.14 K): 92.2 ± 1.3 kPa
vapor or sublimation pressure (364 K): 104.4 ± 1.5 kPa

C1C[C@@H]2[C@H]3CC[C@H](C3)[C@@H]2C1 [exo-tetrahydrodicyclopentadiene]
mass density: 931.4 ± 2 kg/m3
viscosity: 2.739 ± 0.056 mPa·s
vapor or sublimation pressure (393 K): 14.8 ± 0.9 kPa
vapor or sublimation pressure (397.64 K): 17.5 ± 1.1 kPa
vapor or sublimation pressure (402.29 K): 20.7 ± 1.2 kPa
vapor or sublimation pressure (406.93 K): 24.2 ± 1.5 kPa
vapor or sublimation pressure (411.57 K): 28.2 ± 1.7 kPa
vapor or sublimation pressure (416.21 K): 32.7 ± 2 kPa
vapor or sublimation pressure (420.86 K): 37.8 ± 2.3 kPa
vapor or sublimation pressure (425.5 K): 43.3 ± 2.6 kPa
vapor or sublimation pressure (430.14 K): 49.5 ± 3 kPa
vapor or sublimation pressure (434.79 K): 56.3 ± 3.4 kPa
vapor or sublimation pressure (439.43 K): 63.8 ± 3.8 kPa
vapor or sublimation pressure (444.07 K): 72 ± 4.3 kPa
vapor or sublimation pressure (448.71 K): 80.9 ± 4.9 kPa
vapor or sublimation pressure (453.36 K): 90.6 ± 5.4 kPa
vapor or sublimation pressure (458 K): 101.1 ± 6.1 kPa

Reference: the NIST ThermoML archive (doi:10.1016/j.fluid.2009.06.002)
